Reference: patent publication US20040167033A1, “Herbicidal composition” (priority 2001, published 2004)

Tested on: maize
Assay: Pre-emergence test (Example B2), greenhouse pots, phytotoxicity on maize
Assay type: in vivo
Experimental: The test plants are sown in pots under greenhouse conditions. A standard soil is used as cultivation substrate. At a pre-emergence stage, the herbicides, both on their own and in admixture with safener, are applied to the soil surface or to cultivated plants seed-dressed with safener. The rates of application depend on the optimum doses ascertained under field conditions or greenhouse conditions. The tests are evaluated after from 2 to 4 weeks (100% action=complete destruction, 0% action=no phytotoxic action). The mixtures used in this test show good results.

SMILES: CCc1cccc(C)c1N(C(=O)CCl)[C@@H](C)COC [S-metolachlor]
- Phytotoxicity on maize (%) 15 days after application (Table B2.1, S-metolachlor 1000 g/ha (EC 960), safener of formula II row prints 1000 g/ha): 7%
- Phytotoxicity on maize (%) 15 days after application (Table B2.1, S-metolachlor 2000 g/ha (EC 960), safener of formula II row prints 2000 g/ha): 20%
- Phytotoxicity on maize (%) 15 days after application (Table B2.1, S-metolachlor 4000 g/ha (EC 960), safener of formula II row prints 4000 g/ha): 40%
- Phytotoxicity on maize (%) 15 days after application (Table B2.1, S-metolachlor 6000 g/ha (EC 960), safener of formula II row prints 6000 g/ha, 100%=complete destruction): 53%
